What was measured:
mouse MOR [1] = biological target: T1, mouse MOR (Mus musculus, UniProt P42866); assay: [35S]-GTPγS functional assay, MOR-CHO membranes; conditions: for Emax: read-out: MOR [35S]-GTPγS assay % Emax of DAMGO, relative to 3 μM DAMGO; for MOR [35S]-GTPγS assay % Emax of DAMGO: relative to 3 μM DAMGO
mouse MOR [2] = biological target: T1, mouse MOR; assay: Competitive radioligand binding assay, MOR
mouse KOR = mouse KOR (Mus musculus, UniProt P33534); assay: Competitive radioligand binding assay, KOR
mouse DOR = mouse DOR (Mus musculus, UniProt P32300); assay: Competitive radioligand binding assay, DOR
male Swiss Webster mice [3] = assay: Warm-water tail immersion assay, antinociceptive effect; conditions: 10 mg/kg s.c., tested 20 min after injection, 56 °C water
[4] = system: KOR-DOR and KOR-MOR heterodimers; conditions: HEK293 cells; cited from earlier work
[5] = cited from earlier work
male Swiss Webster mice [6] = assay: Warm-water tail immersion assay, antagonism of morphine's antinociceptive effect; conditions: dose-response study, s.c.

O=C(N[C@H]1CC[C@@]2(O)[C@H]3Cc4ccc(O)c5c4[C@@]2(CCN3CC2CC2)[C@H]1O5)c1c[nH]c2ccccc12 [Compound 11, 17-Cyclopropylmethyl-3,14β-dihydroxy-4,5α-epoxy-6α-(indole-3-carboxamido)morphinan]
EC50 (mouse MOR [1]): 1 ± 0.13 nM
Emax (mouse MOR [1]): 33.3 ± 3.51%
Ki (mouse MOR [2]): 0.29 ± 0.04 nM
Ki (mouse KOR): 0.98 ± 0.13 nM
Ki (mouse DOR): 10.5 ± 2.89 nM

O=C(N[C@@H]1CC[C@@]2(O)[C@H]3Cc4ccc(O)c5c4[C@@]2(CCN3CC2CC2)[C@H]1O5)c1cccc2cc[nH]c12 [Compound 6, 17-Cyclopropylmethyl-3,14β-dihydroxy-4,5α-epoxy-6β-(indole-7-carboxamido)morphinan]
MOR [35S]-GTPγS assay % Emax of DAMGO (mouse MOR [1]): 37.94 ±5.85%
Ki (mouse KOR): 0.52 ± 0.09 nM
Ki (mouse DOR): 30.4 ± 9.49 nM

O=C(N[C@@H]1CC[C@@]2(O)[C@H]3Cc4ccc(O)c5c4[C@@]2(CCN3CC2CC2)[C@H]1O5)c1c[nH]c2ccccc12 [Compound 2, 17-Cyclopropylmethyl-3,14β-dihydroxy-4,5α-epoxy-6β-(indole-3-carboxamido)morphinan]
EC50 (mouse MOR [1]): 0.22 ± 0.07 nM
Emax (mouse MOR [1]): 79.5 ± 7.41%
MOR [35S]-GTPγS assay % Emax of DAMGO (mouse MOR [1]): high MOR efficacies
Antinociceptive effect (% MPE) (male Swiss Webster mice [3]): low % MPE values
Ki (mouse MOR [2]): 0.19 ± 0.02 nM
Ki (mouse DOR): 7.17 ± 1.23 nM

O=C(N[C@@H]1CC[C@@]2(O)[C@H]3Cc4ccc(O)c5c4[C@@]2(CCN3CC2CC2)[C@H]1O5)c1ccc2[nH]ccc2c1 [Compound 4, 17-Cyclopropylmethyl-3,14β-dihydroxy-4,5α-epoxy-6β-(indole-5-carboxamido)morphinan]
EC50 (mouse MOR [1]): 2.98 ± 1.25 nM
Emax (mouse MOR [1]): 22.3 ± 3.5%
Ki (mouse MOR [2]): 0.26 ± 0.04 nM
Ki (mouse KOR): 0.51 ± 0.04 nM
Ki (mouse DOR): 17.7 ± 4.78 nM

O=C(N[C@H]1CC[C@@]2(O)[C@H]3Cc4ccc(O)c5c4[C@@]2(CCN3CC2CC2)[C@H]1O5)c1ccc2cc[nH]c2c1 [Compound 14, 17-Cyclopropylmethyl-3,14β-dihydroxy-4,5α-epoxy-6α-(indole-6-carboxamido)morphinan]
EC50 (mouse MOR [1]): 6.06 ± 1.25 nM
Emax (mouse MOR [1]): 26.6 ± 0.66%
Ki (mouse MOR [2]): 0.43 ± 0.05 nM
Ki (mouse KOR): 1.63 ± 0.28 nM
Ki (mouse DOR): 12.8 ± 3.36 nM

O=C(CCc1c[nH]c2ccccc12)N[C@H]1CC[C@@]2(O)[C@H]3Cc4ccc(O)c5c4[C@@]2(CCN3CC2CC2)[C@H]1O5 [Compound 17, 17-Cyclopropylmethyl-3,14β-dihydroxy-4,5α-epoxy-6α-[3-(indol-3-yl)propanamido)morphinan]
EC50 (mouse MOR [1]): 2.09 ± 0.19 nM
Emax (mouse MOR [1]): 41.5 ± 6.14%
Ki (mouse MOR [2]): 0.44 ± 0.04 nM
Ki (mouse KOR): 1.36 ± 0.18 nM
Ki (mouse DOR): 25.1 ± 6.83 nM

O=C(N[C@H]1CC[C@@]2(O)[C@H]3Cc4ccc(O)c5c4[C@@]2(CCN3CC2CC2)[C@H]1O5)c1cc2ccccc2[nH]1 [Compound 10, 17-Cyclopropylmethyl-3,14β-dihydroxy-4,5α-epoxy-6α-(indole-2-carboxamido)morphinan]
EC50 (mouse MOR [1]): 6.75 ± 3.2 nM
Emax (mouse MOR [1]): 36.9 ± 2.4%
Ki (mouse MOR [2]): 0.36 ± 0.03 nM
Ki (mouse KOR): 0.93 ± 0.13 nM
Ki (mouse DOR): 14.2 ± 2.78 nM

O=C(N[C@@H]1CC[C@@]2(O)[C@H]3Cc4ccc(O)c5c4[C@@]2(CCN3CC2CC2)[C@H]1O5)c1cc2ccccc2[nH]1 [Compound 1, 17-Cyclopropylmethyl-3,14β-dihydroxy-4,5α-epoxy-6β-(indole-2-carboxamido)morphinan]
Activation of KOR-DOR and KOR-MOR heterodimers [4]: activated
Antinociception [5]: potent antinociception
Aversive effects in the conditioned place preference assay [5]: no aversive effects
Tolerance and dependence [5]: devoid of tolerance and dependence
EC50 (mouse MOR [1]): 0.21 ± 0.01 nM
MOR [35S]-GTPγS assay EC50 (mouse MOR [1]; mMOR-CHO membranes): subnanomolar potency
Emax (mouse MOR [1]): 92.4 ± 2.81%
MOR [35S]-GTPγS assay % Emax of DAMGO (mouse MOR [1]): full agonist
Antinociceptive effect (% MPE) (male Swiss Webster mice [3]; listed as INTA): potent antinociception
Ki (mouse MOR [2]): 0.29 ± 0.04 nM
Ki (mouse KOR): 0.18 nM
Ki (mouse DOR): 1.54 ± 0.47 nM

O=C(CCCc1c[nH]c2ccccc12)N[C@H]1CC[C@@]2(O)[C@H]3Cc4ccc(O)c5c4[C@@]2(CCN3CC2CC2)[C@H]1O5 [Compound 18, 17-Cyclopropylmethyl-3,14β-dihydroxy-4,5α-epoxy-6α-[4-(indol-3-yl)butanamido)morphinan]
EC50 (mouse MOR [1]): 1.89 ± 1.04 nM
Emax (mouse MOR [1]): 54.9 ± 6.35%
Ki (mouse MOR [2]): 0.29 ± 0.04 nM
Ki (mouse KOR): 0.15 ± 0.03 nM
Ki (mouse DOR): 6.73 ± 0.4 nM

O=C(N[C@H]1CC[C@@]2(O)[C@H]3Cc4ccc(O)c5c4[C@@]2(CCN3CC2CC2)[C@H]1O5)c1cccc2cc[nH]c12 [Compound 15, 17-Cyclopropylmethyl-3,14β-dihydroxy-4,5α-epoxy-6α-(indole-7-carboxamido)morphinan]
AD50 (95% CL), opioid antagonist effect against morphine (male Swiss Webster mice [6]): 2.07 (0.40−10.74) mg/kg

O=C(N[C@H]1CC[C@@]2(O)[C@H]3Cc4ccc(O)c5c4[C@@]2(CCN3CC2CC2)[C@H]1O5)c1cccc2[nH]ccc12 [Compound 12, 17-Cyclopropylmethyl-3,14β-dihydroxy-4,5α-epoxy-6α-(indole-4-carboxamido)morphinan]
EC50 (mouse MOR [1]): 4.99 ± 2.19 nM
MOR [35S]-GTPγS assay % Emax of DAMGO (mouse MOR [1]): 28.90 ±0.95%
Ki (mouse MOR [2]): 0.26 ± 0.04 nM
Ki (mouse DOR): 9.26 ± 2.83 nM

O=C(N[C@@H]1CC[C@@]2(O)[C@H]3Cc4ccc(O)c5c4[C@@]2(CCN3CC2CC2)[C@H]1O5)c1cccc2[nH]ccc12 [Compound 3, 17-Cyclopropylmethyl-3,14β-dihydroxy-4,5α-epoxy-6β-(indole-4-carboxamido)morphinan]
EC50 (mouse MOR [1]): 8.16 ± 4.72 nM
Ki (mouse MOR [2]): 0.24 ± 0.03 nM
Ki (mouse DOR): 49.8 ± 12.7 nM

O=C(CCCc1c[nH]c2ccccc12)N[C@@H]1CC[C@@]2(O)[C@H]3Cc4ccc(O)c5c4[C@@]2(CCN3CC2CC2)[C@H]1O5 [Compound 9, 17-Cyclopropylmethyl-3,14β-dihydroxy-4,5α-epoxy-6β-[4-(indol-3-yl)butanamido)morphinan]
EC50 (mouse MOR [1]): 1.04 ± 0.17 nM
MOR [35S]-GTPγS assay % Emax of DAMGO (mouse MOR [1]): 36.29 ±4.11%
Ki (mouse MOR [2]): 0.2 ± 0.03 nM
Ki (mouse DOR): 25.3 ± 4.34 nM

O=C(CCc1c[nH]c2ccccc12)N[C@@H]1CC[C@@]2(O)[C@H]3Cc4ccc(O)c5c4[C@@]2(CCN3CC2CC2)[C@H]1O5 [Compound 8, 17-Cyclopropylmethyl-3,14β-dihydroxy-4,5α-epoxy-6β-[3-(indol-3-yl)propanamido)morphinan]
EC50 (mouse MOR [1]): 1.73 ± 1.1 nM
Emax (mouse MOR [1]): 45.1 ± 5.18%
Ki (mouse MOR [2]): 0.17 ± 0.01 nM
Ki (mouse KOR): 0.39 ± 0.05 nM
Ki (mouse DOR): 77.1 ± 28.3 nM

O=C(N[C@H]1CC[C@@]2(O)[C@H]3Cc4ccc(O)c5c4[C@@]2(CCN3CC2CC2)[C@H]1O5)c1ccc2[nH]ccc2c1 [Compound 13, 17-Cyclopropylmethyl-3,14β-dihydroxy-4,5α-epoxy-6α-(indole-5-carboxamido)morphinan]
EC50 (mouse MOR [1]): 1.55 ± 0.08 nM
Emax (mouse MOR [1]): 32.2 ± 1.26%
Ki (mouse MOR [2]): 0.76 ± 0.11 nM
Ki (mouse KOR): 3.45 ± 0.99 nM
Ki (mouse DOR): 26.7 ± 7.72 nM

O=C(N[C@@H]1CC[C@@]2(O)[C@H]3Cc4ccc(O)c5c4[C@@]2(CCN3CC2CC2)[C@H]1O5)c1ccc2cc[nH]c2c1 [Compound 5, 17-Cyclopropylmethyl-3,14β-dihydroxy-4,5α-epoxy-6β-(indole-6-carboxamido)morphinan]
EC50 (mouse MOR [1]): 0.19 ± 0.02 nM
Emax (mouse MOR [1]): 71.8 ± 4.37%
MOR [35S]-GTPγS assay % Emax of DAMGO (mouse MOR [1]): high MOR efficacies
Antinociceptive effect (% MPE) (male Swiss Webster mice [3]): low % MPE values
Ki (mouse MOR [2]): 0.25 ± 0.04 nM
Ki (mouse KOR): 0.17 ± 0.01 nM
Ki (mouse DOR): 6.23 ± 0.83 nM

O=C(Cc1c[nH]c2ccccc12)N[C@H]1CC[C@@]2(O)[C@H]3Cc4ccc(O)c5c4[C@@]2(CCN3CC2CC2)[C@H]1O5 [Compound 16, 17-Cyclopropylmethyl-3,14β-dihydroxy-4,5α-epoxy-6α-[2-(indol-3-yl)acetamido)morphinan]
EC50 (mouse MOR [1]): 4.75 ± 0.31 nM
Emax (mouse MOR [1]): 34.1 ± 0.97%
Ki (mouse MOR [2]): 0.84 ± 0.12 nM
Ki (mouse KOR): 3.14 ± 0.45 nM
Ki (mouse DOR): 9.17 ± 2.67 nM

O=C(Cc1c[nH]c2ccccc12)N[C@@H]1CC[C@@]2(O)[C@H]3Cc4ccc(O)c5c4[C@@]2(CCN3CC2CC2)[C@H]1O5 [Compound 7, 17-Cyclopropylmethyl-3,14β-dihydroxy-4,5α-epoxy-6β-[2-(indol-3-yl)acetamido)morphinan]
EC50 (mouse MOR [1]): 1.44 ± 0.75 nM
Emax (mouse MOR [1]): 48.3 ± 4.45%
Ki (mouse MOR [2]): 0.24 ± 0.03 nM
Ki (mouse DOR): 37 ± 1.21 nM

— paper PMC6405326 (ACS chemical neuroscience, 2018)
